Data from publication PMC2744931, “Glutamate Uptake Triggers Transporter-Mediated GABA Release from Astrocytes” (PLoS ONE, 2009).

Key:
hippocampus = details: cited from earlier work
[1] = test system: GABA transport in rat cerebrocortical NPMV (GAT-2/3); assay: [3H]GABA uptake in rat cerebrocortical native plasma membrane vesicles (NPMV) in the presence of 100 µM NNC-711; type: biochemical
Protocol: (§1) Cerebral cortices of 4–6 weeks old male Wistar rats (Toxicoop, Hungary) and frozen human brain tissue samples (Hungarian Brain Tissue Bank, Budapest) were used to prepare NPMV fractions, that contain numerous membrane vesicles of different sizes and shapes, a few intact synaptosomes and free mitochondria. […] Afterward, preincubated solution was incubated with [^3H]GABA (10 nM, Amersham) and GABA (90 nM, Sigma) for 1 min. In case of [^3H]β-alanine uptake, incubation solution contained 100 nM [^3H]β-alanine (Amersham) and 900 nM β-alanine (Sigma). After the incubation, samples were immediately filtered through glass fiber filters and washed twice with ice-cold HEPES buffer. The [^3H]GABA level inside the plasma membrane vesicles was determined by liquid scintillation method. Although this method is generally used to measure GABA uptake, we applied it to follow GABA release due to the simplicity and reliability of the assay. We also determined GABA release by preloading [^3H]GABA into NPMV vesicles and measuring the [^3H]GABA level in the intracellular and extracellular milieu. […] Non-specific uptake was determined in the presence of 1 mM guvacine. The radioactivity of samples was counted in HiSafe 3 (Perkin Elmer) scintillation mixture.

human NPMVs = assay: [3H]GABA uptake in human brain tissue NPMVs; type: biochemical; details: 100 µM NNC-711; hippocampus, cortical gray and white matter, spinal cord white matter, choroid plexus, corpus callosum
Protocol: as §1

rat hippocampus = assay: In vivo microdialysis and HPLC amino acid detection in the hippocampus
Protocol: Male Wistar rats (300–400 g) were anaesthetized with halothane (1% in air) and microdialysis probes were implanted into the ventral hippocampus (A: −5.0, L: 5.0, V: −8.0) as described previously. To minimize tissue damage, the final position of the probes was reached slowly, in not less than 20 min. Perfusion of artificial cerebrospinal fluid, containing 144 mM NaCl, 3 mM KCl, 1 mM MgCl2, 2 mM CaCl2 (pH 7.4), was performed at a rate of 1 µl/min. The dialysate samples during 20 min were stored at −20°C. To establish the background amino acid concentration, each experiment started with the collection of three control samples with <10% variation. NNC-711 was applied bilaterally for 60 min followed by the simultaneous application of t-PDC and NNC-711 for 60 min. Concentration of amino acids was measured by pre-column derivatization of primary amino acids with orthophthalaldehyde (OPA, Sigma). Derivatization was performed at pH 10.4 in the presence of mercaptoethanol. OPA-derivatized amino acids were detected with fluorescence detector excitation wavelength 340 nm and emission wavelength 440 nm. Because of the instability of OPA derivatives, the HPLC technique was automated on an HP 1100 series system. Amino acids were separated on HP Hypersyl ODS reversed-phase columns (200×2.1 mm) filled with 5 µm C-18 spherical packing material. Eluent A was 0.1 M phosphate buffer containing 0.5% (vol/vol) tetrahydrofuran (Merck), pH 5.6, while eluent B contained 70% acetonitrile (Merck) in eluent A, pH 5.6. The gradient profile was: 12% B at 0 min, 23% B at 9 min, 36% B at 18 min, 100% B at 20 min, 100% B at 25 min and 12% B at 30 min. The column equilibration time was 8 min. External standards of 10 µM amino acids were injected after every 20 samples. Chromatograms were evaluated with HP Chem-Station software. Concentration of GABA measured in dialysate samples collected during drug applications were related to averaged GABA concentration of control samples collected for an hour prior to drug application and were given as percent changes.

[2] = test system: acute rat hippocampal slices; assay: [3H]GABA efflux from acute rat hippocampal slices (microvolume superfusion); type: cell-based
Protocol: Radiolabeling of 400 µm thick acute slices was conducted in 200 µl of ACSF in a glass tube. […] To preferentially label the cytosolic over the vesicular pools, incubation of slices at 30°C lasted for 10 min [54]. Slices were washed with fresh ACSF containing GABA-T inhibitors, thereafter placed in a custom-built closed micro-volume (50 µl) chamber secured in a water bath thermostated at 30°C [55]. […] The superfusate was collected in 0.5 ml fractions. After washing for 10 min, 10 fractions were collected to define the basal release of radioactivity (‘pre-stimulus’). At this point, the hippocampal slice was exposed to 100 µM Glu for a period of 10 min (‘drug application’), followed by further 10 min of washing with ACSF (‘washout’). Radioactivity of each 0.5 ml fraction counted in 3 ml HiSafe 3 scintillation mixture was expressed as the percentage of the actual radioactivity content of the slice (fractional release). Fractional release data from individual slices were normalized to a first order exponential curve (obtained by fitting the pre-stimulus and the last 3 washout values). Normalized percent efflux data from fractions of ‘pre-stimulus’ (1–10 min) versus ‘drug application’ (11–20 min) periods were averaged and compared by statistical analysis.

GAT-2/3 = assay: [3H]β-alanine uptake in rat cerebrocortical NPMV fraction; type: biochemical; details: n = 3
Protocol: as §1

rat cerebrocortical NPMV = assay: Total extracellular GABA by HPLC in rat cerebrocortical NPMV samples; type: biochemical; details: 300 µM Glu, n = 3
rat cortex NPMVs = assay: [3H]GABA release from NPMV vesicles preloaded with [3H]GABA; type: biochemical; details: 10 min incubation with Glu, n = 3
Protocol: as §1

Glu decarboxylase (GAD) = assay: NMR (13C-HSQC) of [13C]GABA formation from [13C]Glu in rat cortical NPMV fraction; type: biochemical
Protocol: NPMV samples for NMR experiments were prepared as described before. NPMV fractions from the whole cortex were homogenized in 1 ml HEPES buffer containing 300 µM [^13C]Glu and were incubated at 30°C for 30 min. The homogenate was then centrifuged at 3500 g for 15 min. The supernatant (extracellular fraction) was stored and the pellet (intracellular fraction) was suspended in 1 ml HEPES buffer and frozen (−80°C) and thawed 3 times. In the NMR experiments on brain slices, 13 hippocampal slices were put in a 2 ml centrifuge tube and the ACSF was replaced with 1 ml ACSF containing 300 µM [^13C]Glu. The slices were incubated at 37°C for 30 min. Afterwards, the samples were frozen (−80°C) and thawed 3 times.
NMR experiments were carried out at 30°C on a Varian NMR SYSTEM (600 MHz for ^1H) four-channel spectrometer using a 5 mm indirect detection triple resonance (^1H^13C^15N) z-axis gradient probe. Samples (200 µl) were placed into 5 mm Shigemi NMR tubes. Gradient-enhanced ^1H/^13C heteronuclear correlation spectra (^13C-HSQC) were acquired with a ^1H spectral width of 9600 Hz and 2048 complex points, zero-filled to a total of 4096. […] Gaussian and exponential weighting functions were applied in the F2 dimension, while the indirectly detected dimensions were Gaussian weighted only. […]

GAT-3 = test system: GAT-3; set-up: method as in PMID 17408599, PMID 16274841; details: cited from earlier work

## O=C(O)[C@@H]1CN[C@@H](C(=O)O)C1 (relative stereo) [t-PDC, L-trans-pyrrolidine-2,4-dicarboxylate]
hippocampus
  neuronal damage after in vivo administration in the hippocampus: did not produce cell death
hippocampus; very high concentration (25–100 mM)
  neuronal damage in vivo: did not evoke neuronal damage in vivo
[1]; 10 min preincubation, 100 µM NNC-711 (Figure 1B)
  effect on GABA transport in rat cortical NPMV: able to affect GABA transport
Human NPMVs
  inhibition of [3H]GABA uptake in human brain tissue samples: able to inhibit [^3H]GABA uptake in all investigated areas
Rat hippocampus; control for non-specific release, n = 10
  [Arginine]o in the rat hippocampus in vivo: 94±32 % of control
Rat hippocampus; microdialysis application, t-PDC applied together with NNC-711, n = 10
  [GABA]o in the rat hippocampus in vivo: 233±33 % of control

## N[C@@H](CCC(=O)O)C(=O)O [Glu, L-glutamate]
[2]; 100 µM Glu in low-[Ca2+]/high-[Mg2+] buffer, n = 5
  elevation of [GABA]o ([3H]GABA efflux): 148.3±15.5 % of pre-stimulus control
[2]; 100 µM Glu in the presence of glutamate receptor antagonists (DL-AP5 50 µM, CNQX 10 µM, (S)-MCPG 500 µM), n = 7
  elevation of [GABA]o ([3H]GABA efflux): 128.5±13.4 % of pre-stimulus control
[2]; 100 µM Glu, control conditions, n = 6
  elevation of [GABA]o ([3H]GABA efflux): 149±14 % of pre-stimulus control
[2]; Glu-induced release in the presence of Glu receptor antagonists
  share of average [GABA]o increase remaining: 58%
[1]; 10 min preincubation, 100 µM NNC-711, rat cerebrocortical NPMV, n = 7, read-out: IC50, inhibition of [3H]GABA uptake
  IC50: 11 ± 0.1 µM
[1]; preincubation of vesicles with Glu for 10 minutes, in the presence of NNC-711
  inhibition of GABA uptake: 52%
Human NPMVs
  inhibition of [3H]GABA uptake in human brain tissue samples: able to inhibit [^3H]GABA uptake in all investigated areas
GAT-2/3
  effect on cytosolic β-alanine level ([3H]β-alanine uptake): reduce cytosolic level
Rat cerebrocortical NPMV; SCB-treated rats
  increase of the extracellular GABA level (HPLC): 35±6%
Rat cerebrocortical NPMV; control rats
  increase of the extracellular GABA level (HPLC): 46±3%
Rat cortex NPMVs
  IC50: 13.1 ± 1.6 µM

## NNC(N)=O [SCB, semicarbazide]
[2]; Glu-induced release, slices of SCB-treated animals (100 mg/kg i.p., 2 mM present), n = 7
  elevation of [GABA]o ([3H]GABA efflux): 145±14 % of pre-stimulus control
[1]; 100 µM NNC-711 present
  modulation of the effect of Glu on GABA transport / cytosolic GABA level in rat cortical NPMV: did not affect [^3H]GABA release
Glu decarboxylase (GAD); SCB treatment, rat cortical NPMV fraction
  effect on [13C]GABA formation: completely blocked

## [15NH2][13C@@H]([13CH2][13CH2][13C](=O)O)[13C](=O)O [[^13C]Glu, [U-^13C/^15N]Glu]
Glu decarboxylase (GAD); 300 µM [13C]Glu, 30 min, rat cortical NPMV
  share of extracellularly applied [13C]Glu converted to [13C]GABA and released: ~5%

## CN1C(=O)CC(=O)N(c2ccccc2)c2cc(Cl)ccc21 [clobazam]
GAT-3
  GAT-3 expression in the hippocampus: up-regulate GAT-3 expression

## CC[C@@H](C(N)=O)N1CCCC1=O [levetiracetam]
GAT-3
  GAT-3 expression in the hippocampus: up-regulate GAT-3 expression
